Assay results: patent US20130183239A1, “ISOTOPIC CARBON CHOLINE ANALOGS” (IMPERIAL COLLEGE, priority 2010, published 2013)

Assays:
[1] = Potassium permanganate oxidation study; assay type: physicochemical; conditions: 1 hour post-treatment with potassium permanganate, room temperature, radio-HPLC
Source text: Reagents and Conditions: i) KMnO4, Na2CO3, H2O, rt.

[2] = system: prostate adenocarcinoma PC3-M tumors; design: AUC: unit not given beside the values
Description: Dynamic ^11C-choline, ^11C-D4-choline and ^18F-D4-choline imaging scans were carried out on a dedicated small animal PET scanner (Siemens Inveon PET module, Siemens Medical Solutions USA, Inc., Malvem, Pa., USA) following a bolus i.v. injection in tumor-bearing mice of either ˜3.7 MBq for ^18F studies, or ˜18.5 MBq for ^11C. Dynamic scans were acquired in list mode format over 60 min. The acquired data were then sorted into 0.5 mm sinogram bins and 19 time frames for image reconstruction (4×15 s, 4×60 s, and 11×300 s), which was done by filtered back projection. For input function analysis, data were sorted into 25 time frames for image reconstruction (8×5 s, 1×20 s, 4×40 s, 1×80 s, and 11×300 s). The Siemens Inveon Research Workplace software was used for visualization of radiotracer uptake in the tumor; 30 to 60 min cumulative images of the dynamic data were employed to define 3-dimensional (3D) regions of interest (ROIs). Arterial input function was estimated as follows: a single voxel 3D ROI was manually drawn in the center of the heart cavity using 2 to 5 min cumulative images. Care was taken to minimize ROI overlap with the myocardium. The count densities were averaged for all ROIs at each time point to obtain a time versus radioactivity curve (TAC). Tumor TACs were normalized to injected dose, measured by a VDC-304 dose calibrator (Veenstra Instruments, Joure, The Netherlands), and expressed as percentage injected dose per mL tissue. The area under the TAC, calculated as the integral of % ID/mL from 0-60 min, and the normalized uptake of radiotracer at 60 min (% ID/mL60) were also used for comparisons.
For PET imaging, tumors were grown to 100 mm^3 prior to imaging.
A 2-tissue irreversible compartmental model was employed to fit the TACs, as has been previously established for ^11C-choline (Kenny L M, Contractor K B, Hinz R, et al. Reproducibility of [11C]choline-positron emission tomography and effect of trastuzumab. Clin Cancer Res. Aug. 15 2010; 16(16):4236-4245; and Sutinen E, Nurmi M, Roivainen A, et al. Kinetics of [(11)C]choline uptake in prostate cancer: a PET study. Eur J Nucl Med Mol. Imaging. March 2004; 31(3):317-324). An estimate of the whole blood TAC (wbTAC(t)) was derived from the PET image itself, as described above. […] Therefore it was fitted with a sum of 3 exponentials from the peak on and the fitted function was used as input function in the kinetic modeling (after metabolite correction, see below). […] The pf values were fitted to a sum of two exponentials with the constraint pf(t=0)=1 to obtain the function pf(t). The parent whole blood TAC wbTACPAR(t) was then computed by multiplying wbTAC(t) and pf(t) and used as input function to estimate the parameters K1 (mL/cm^3/min), k2 (1/min), k3 (1/min) and Vb (unitless). The steady state net irreversible uptake rate constant Ki (mL/cm^3/min) was calculated from the estimated microparameters as K1k3/(k2+k3).

[3] = PC3-M tumors, 2-tissue irreversible model

[2H]C([2H])(O)C([2H])([2H])[N+](C)(C)C[18F] [[^18F]D4-FCH, [^18F]fluoromethyl-[1,2-^2H4]-choline]
parent compound still present [1]: ~80% | K1′ [2, 3]: 0.090 ± 0.007 | Ki [2, 3]: 0.009 ± 0.002 mL/cm^3/min | k3 [2, 3]: 0.040 ± 0.006 min⁻¹ | AUC ([2]; mouse, in vivo): 121.3 ± 3.1 | NUV60 ([2]; mouse, in vivo): 1.97 ± 0.07 % ID/mL | increase in % ID/mLmax, smaller versus larger tumors ([2]; mouse, in vivo): 1.4 fold | increase in normalized uptake at 60 min, smaller versus larger tumors ([2]; mouse, in vivo): 2.4 fold | time to maximal tumor-specific radioactivity ([2]; mouse, in vivo): ≤ 5 min
